According to ChEMBL document CHEMBL1151108, “Plant antimutagenic agents, 1. General bioassay and isolation procedures” (J Nat Prod, 1988):

Experiments:
[1] = test system: Salmonella typhimurium; experiment: Toxicity in Salmonella Typhimurium TA98 at 150 ug/plate in presence of liver S9 fraction by Ames test; format: organism-based; conditions: salmonella enterica subsp. enterica serovar typhimurium
[2] = test system: Salmonella typhimurium; experiment: Toxicity in Salmonella Typhimurium TA98 at 300 ug/plate in presence of liver S9 fraction by Ames test; format: organism-based; conditions: salmonella enterica subsp. enterica serovar typhimurium

With `C=C1CCC[C@]2(C)C[C@H]3OC(=O)[C@@H](C)[C@H]3C[C@@H]12` [DIHYDROISOALANTOLACTONE] the Activity [1] was “Non-toxic” and the Activity [2] was “Non-toxic”.

With `C=C1C(=O)O[C@@H]2C[C@@]3(C)CCCC(=C)[C@@H]3C[C@H]12` [ISOALANTOLACTONE] the Activity [1] was “Toxic” and the Activity [2] was “Toxic”.
